Laboratory results from patent publication US8129371B2, “Thienopyrimidine and pyrazolopyrimidine compounds and their use as mTOR kinase and PI3 kinase inhibitors” (Wyeth LLC, priority 2007, dated 2012).
Like-named read-outs stand apart in the source and are kept apart here.

Tests used:
[1] = molecular target: T1, PI3K (Homo sapiens, UniProt P48736); test: Fluorescence polarization assay for PI3K; type: biochemical; conditions: read-out: PI3 Kinase γ IC50
T1 construct: PI3 Kinase γ IC50; other: PI3 Kinase γ; other: PI3 Kinase γ isoform, fluorescence polarization
Description: (§1) This assay is used to determine the IC50 of compounds of the present invention as it identifies inhibitors of PI3 kinase by measuring inhibition.
(§2) The assay is run by placing 5 μL of diluted enzyme per well, then 5 μL of diluted compound (or 9.5 μL enzyme then 0.5 μL compound in DMSO) is added and mixed. Then, 10 μL substrate is added to start the reaction. The samples are incubated 30-60 minutes, then the reaction is stopped by adding 20 μL stop/detector mix. PI3K is diluted with reaction buffer (e.g., 5 μL or 7.5 μL PI3K into 620 μL reaction buffer), and 5 μL of diluted enzyme is used per well. 5 μL reaction buffer or drug diluted in buffer (e.g., 4 μL/100 so final DMSO is 1% in reaction) is added to each. Pipetting up and down mixes the samples. Alternatively, the enzyme can be diluted to 1215 μL. In this case 9.8 μL is added per well and 0.2 μL compound is added in DMSO. To prepare 1 mL of substrate solution, 955 μL reaction buffer, 40 μL PIP2, and 2.5 μL ATP are mixed. 10 μL of substrate is added to each well to start the reaction.
(§3) Stop/detector mix is prepared by mixing 4 μL Red detector and 1.6 μL or 2.0 μL GST-GRP with 1 mL Stop buffer, which results in 10 nM probe and 70 nM GST-GRP). 20 μL of the stop/detector mix is added to each well to stop the reaction. The plates are read after 30-90 minutes keeping the red probe solutions dark. For the zero time point, stop/detector mix is added to the enzyme just before adding substrate. For an extra control, stop/detector mix is added to buffer (no enzyme) and substrate or to just buffer (no substrate). […] Plates are read on machines with filters for Tamra. The units are mP with no enzyme controls reading app 190-220 mP units. Fully active enzyme reduces fluorescence polarization down to 70-100 mP after 30 minutes.

[2] = molecular target: T2, PI3K (Homo sapiens, UniProt P42336); test: Fluorescence polarization assay for PI3K; type: biochemical; conditions: read-out: PI3 Kinase α IC50
T2 construct: PI3 Kinase α IC50; other: PI3 Kinase α; other: PI3 Kinase α isoform, fluorescence polarization
Description: as §1, §2, §3

[3] = tested on: prostate line LNCap; test: In vitro cell culture growth assay (MTS), LNCap; type: cell-based; conditions: Homo sapiens, LNCaP, 72 h, LNCap cells, three days after drug treatment
Description: (§4) Human tumor cell lines used include prostate lines LNCap and PC3MM2, breast lines MDA468, MCF7, renal line HTB44 (A498), colon line HCT116, and ovarian line OVCAR3. Cells were plated in 96-well culture plates. One day following plating, the inhibitors were added to cells. Three days after drug treatment, viable cell densities were determined by metabolic conversion (by viable cells) of the dye MTS, a well-established cell proliferation assay. The assays were performed using an assay kit purchased from Promega Corp. (Madison, Wis.) following the protocol supplied with the kit. The MTS assay results were read in a 96-well plate reader by measuring absorbance at 490 nm. The effect of each treatment was calculated as percent of control growth relative to the vehicle-treated cells grown in the same culture plate.

[4] = molecular target: T3, Human mTOR (FLAG-TOR) (Homo sapiens, UniProt P42345); test: Human mTOR kinase assay with purified enzyme, DELFIA format; type: biochemical
T3 construct: FLAG
Description: Enzymes are first diluted in kinase assay buffer (10 mM HEPES (pH 7.4), 50 mM NaCl, 50 mM β-glycerophosphate, 10 mM MnCl2, 0.5 mM DTT, 0.25 mM microcystin LR, and 100 mg/mL BSA). To each well, 12 μL of the diluted enzyme is mixed briefly with 0.5 μL test inhibitor or control vehicle dimethylsulfoxide (DMSO). […] The reaction plate is incubated for 2 hours (linear at 1-6 hours) at room temperature with gentle shaking and then terminated by adding 25 μL Stop buffer (20 mM HEPES (pH 7.4), 20 mM EDTA, 20 mM EGTA). […] The DELFIA Assay buffer and Enhancement solution can be purchased from PerkinElmer. 45 μL of the terminated kinase reaction mixture is transferred to a MaxiSorp plate (Nunc) containing 55 μL PBS. The His6-S6K is allowed to attach for 2 hours after which the wells are aspirated and washed once with PBS. 100 μL of DELFIA Assay buffer with 40 ng/mL Eu—P(T389)-S6K antibody is added. The antibody binding is continued for 1 hour with gentle agitation. The wells are then aspirated and washed 4 times with PBS containing 0.05% Tween-20 (PBST). 100 μL of DELFIA Enhancement solution is added to each well and the plates are read in a PerkinElmer Victor model plate reader. Data obtained is used to calculate enzymatic activity and enzyme inhibition by potential inhibitors.

[5] = tested on: breast line MDA468; test: In vitro cell culture growth assay (MTS), MDA468; type: cell-based; conditions: Homo sapiens, 72 h, MDA468 cells, three days after drug treatment
Description: as §4

[6] = PI3 Kinase γ isoform, fluorescence polarization
[7] = PI3 Kinase α isoform, fluorescence polarization
[8] = purified human mTOR enzyme, DELFIA format

T1 sequence (P48736 whole entry, canonical isoform): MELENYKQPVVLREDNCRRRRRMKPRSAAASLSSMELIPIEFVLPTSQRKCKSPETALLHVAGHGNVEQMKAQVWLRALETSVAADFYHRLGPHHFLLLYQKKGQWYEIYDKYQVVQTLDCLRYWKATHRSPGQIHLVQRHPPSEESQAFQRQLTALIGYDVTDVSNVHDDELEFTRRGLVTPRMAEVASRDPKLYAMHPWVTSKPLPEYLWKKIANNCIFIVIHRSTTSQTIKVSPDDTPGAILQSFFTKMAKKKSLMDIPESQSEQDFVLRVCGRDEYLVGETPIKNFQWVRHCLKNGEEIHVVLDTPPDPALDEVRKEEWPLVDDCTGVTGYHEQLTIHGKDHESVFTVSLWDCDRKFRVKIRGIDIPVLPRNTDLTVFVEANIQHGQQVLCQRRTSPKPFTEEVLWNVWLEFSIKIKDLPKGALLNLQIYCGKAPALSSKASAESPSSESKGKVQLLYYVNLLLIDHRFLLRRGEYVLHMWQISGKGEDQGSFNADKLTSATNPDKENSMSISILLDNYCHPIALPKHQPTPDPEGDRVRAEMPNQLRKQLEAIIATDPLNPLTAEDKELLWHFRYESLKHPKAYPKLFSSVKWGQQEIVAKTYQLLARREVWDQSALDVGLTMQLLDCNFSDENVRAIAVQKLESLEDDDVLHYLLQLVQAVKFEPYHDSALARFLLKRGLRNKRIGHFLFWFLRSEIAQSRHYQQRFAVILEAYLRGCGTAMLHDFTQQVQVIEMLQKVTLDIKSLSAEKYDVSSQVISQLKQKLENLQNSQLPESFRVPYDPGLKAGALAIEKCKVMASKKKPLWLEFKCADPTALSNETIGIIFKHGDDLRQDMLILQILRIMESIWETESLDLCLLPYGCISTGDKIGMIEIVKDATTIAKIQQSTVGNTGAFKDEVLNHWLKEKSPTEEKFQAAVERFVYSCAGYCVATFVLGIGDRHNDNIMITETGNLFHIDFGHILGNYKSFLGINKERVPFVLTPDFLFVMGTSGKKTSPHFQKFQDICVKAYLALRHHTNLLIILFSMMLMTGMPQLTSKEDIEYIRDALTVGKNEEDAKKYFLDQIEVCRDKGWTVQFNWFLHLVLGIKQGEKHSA
T2 sequence (P42336 whole entry, canonical isoform): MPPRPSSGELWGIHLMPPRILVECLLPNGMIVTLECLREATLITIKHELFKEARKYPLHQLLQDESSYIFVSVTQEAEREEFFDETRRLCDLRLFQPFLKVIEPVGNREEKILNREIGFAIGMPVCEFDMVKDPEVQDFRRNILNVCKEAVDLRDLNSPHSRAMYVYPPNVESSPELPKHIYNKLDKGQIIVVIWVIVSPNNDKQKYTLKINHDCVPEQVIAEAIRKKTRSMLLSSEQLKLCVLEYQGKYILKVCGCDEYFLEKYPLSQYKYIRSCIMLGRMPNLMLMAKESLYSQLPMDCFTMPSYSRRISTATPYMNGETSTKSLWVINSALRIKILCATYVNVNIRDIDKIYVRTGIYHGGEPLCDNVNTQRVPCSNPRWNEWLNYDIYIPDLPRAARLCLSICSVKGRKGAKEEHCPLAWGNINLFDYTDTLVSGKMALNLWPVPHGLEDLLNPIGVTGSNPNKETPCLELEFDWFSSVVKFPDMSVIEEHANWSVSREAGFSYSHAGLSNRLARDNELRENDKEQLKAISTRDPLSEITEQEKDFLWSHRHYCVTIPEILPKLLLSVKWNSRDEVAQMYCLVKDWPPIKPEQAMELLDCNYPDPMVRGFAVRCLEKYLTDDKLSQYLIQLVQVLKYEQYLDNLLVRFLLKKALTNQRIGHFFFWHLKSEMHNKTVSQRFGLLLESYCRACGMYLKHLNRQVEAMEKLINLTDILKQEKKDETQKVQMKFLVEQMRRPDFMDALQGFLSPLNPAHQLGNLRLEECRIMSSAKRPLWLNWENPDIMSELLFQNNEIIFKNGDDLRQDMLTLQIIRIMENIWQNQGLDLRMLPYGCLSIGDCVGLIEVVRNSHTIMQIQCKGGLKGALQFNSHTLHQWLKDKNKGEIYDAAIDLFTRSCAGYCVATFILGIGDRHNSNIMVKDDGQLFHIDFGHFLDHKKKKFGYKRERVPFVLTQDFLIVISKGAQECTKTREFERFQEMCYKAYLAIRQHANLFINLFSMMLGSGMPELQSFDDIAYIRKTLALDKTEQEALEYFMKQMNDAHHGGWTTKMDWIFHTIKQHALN

Row | SMILES | IC50 ([1]; PI3 Kinase γ) | IC50 ([2]; PI3 Kinase α) | IC50 [3] | IC50 [4] | IC50 [1, 6] | IC50 [2, 7] | IC50 [4, 8] | IC50 [5]
1 | CNC(=O)Nc1ccc(-c2nc(N3CC4CCC(C3)O4)c3cnn(C4CCN(Cc5cccnc5)CC4)c3n2)cc1 [Example 27, 1-methyl-3-(4-{4-(8-oxa-3-azabicyclo[3.2.1]oct-3-yl)-1-[1-(pyridin-3-ylmethyl)piperidin-4-yl]-1H-pyrazolo[3,4-d]pyrimidin-6-yl}phenyl)urea] | > 10 µM | 0.677 µM | 0.0008 µM | 0.00047 µM |  |  |  | 0.027 µM
2 | CN(C)CCNC(=O)Nc1ccc(-c2nc(N3CC4CCC(C3)O4)c3cnn(C4CCC5(CC4)OCCO5)c3n2)cc1 [Example 133, 1-[2-(dimethylamino)ethyl]-3-{4-[1-(1,4-dioxaspiro[4.5]dec-8-yl)-4-(8-oxa-3-azabicyclo[3.2.1]oct-3-yl)-1H-pyrazolo[3,4-d]pyrimidin-6-yl]phenyl}urea] | 7.64 µM | 0.905 µM | 0.09 µM | 0.0185 µM |  |  |  | 0.7 µM
3 | CC(C)(C)OC(=O)N1CCC(n2ncc3c(N4CC5CCC(C4)O5)nc(-c4ccc(NC(=O)Nc5ccncc5)cc4)nc32)CC1 [Example 25, tert-butyl 4-[4-(8-oxa-3-azabicyclo[3.2.1]oct-3-yl)-6-{4-[(pyridin-4-ylcarbamoyl)amino]phenyl}-1H-pyrazolo[3,4-d]pyrimidin-1-yl]piperidine-1-carboxylate] | 1.64 µM | 0.595 µM | 0.038 µM | 0.00047 µM |  |  |  | 0.07 µM
4 | O=C(NCCO)Nc1ccc(-c2nc(N3CC4CCC(C3)O4)c3cnn(C4CCC5(CC4)OCCO5)c3n2)cc1 [Example 125, 1-{4-[1-(1,4-dioxaspiro[4.5]dec-8-yl)-4-(8-oxa-3-azabicyclo[3.2.1]oct-3-yl)-1H-pyrazolo[3,4-d]pyrimidin-6-yl]phenyl}-3-(2-hydroxyethyl)urea] | > 10 µM | 1.35 µM | 0.008 µM | 0.000235 µM |  |  |  | 0.04 µM
5 | CCn1ncc2c(N3CC4CCC(C3)O4)nc(-c3ccc(NC(=O)Nc4ccc(CO)cc4)cc3)nc21 [Example 182, 1-{4-[1-ethyl-4-(8-oxa-3-azabicyclo[3.2.1]oct-3-yl)-1H-pyrazolo[3,4-d]pyrimidin-6-yl]phenyl}-3-[4-(hydroxymethyl)phenyl]urea] | 1.27 µM | 0.04 µM | < 0.001 µM | 0.00012 µM |  |  |  | < 0.001 µM
6 | CCn1ncc2c(N3CC4CCC(C3)O4)nc(-c3ccc(NC(=O)Nc4ccc(N5CCN(C)CC5)cc4)cc3)nc21 [Example 180, 1-{4-[1-ethyl-4-(8-oxa-3-azabicyclo[3.2.1]oct-3-yl)-1H-pyrazolo[3,4-d]pyrimidin-6-yl]phenyl}-3-[4-(4-methylpiperazin-1-yl)phenyl]urea] | 1.34 µM | 0.056 µM | < 0.001 µM | 0.000275 µM |  |  |  | < 0.001 µM
7 | CN1CCN(c2ccc(NC(=O)Nc3ccc(-c4nc(N5CC6CCC(C5)O6)c5cnn(C6CCC7(CC6)OCCO7)c5n4)cc3)cc2)CC1 [Example 135, 1-{4-[1-(1,4-dioxaspiro[4.5]dec-8-yl)-4-(8-oxa-3-azabicyclo[3.2.1]oct-3-yl)-1H-pyrazolo[3,4-d]pyrimidin-6-yl]phenyl}-3-[4-(4-methylpiperazin-1-yl)phenyl]urea] | 1.71 µM | 0.146 µM | 0.001 µM | 0.000268 µM |  |  |  | 0.001 µM
8 | CCNC(=O)Nc1ccc(-c2nc(N3CC4CCC(C3)O4)c3cnn(C(C)C)c3n2)cc1 [Example 140, 1-ethyl-3-{4-[1-isopropyl-4-(8-oxa-3-azabicyclo[3.2.1]oct-3-yl)-1H-pyrazolo[3,4-d]pyrimidin-6-yl]phenyl}urea] | 5.9 µM | 0.74 µM | 0.001 µM | 0.00014 µM |  |  |  | 0.032 µM
9 | COC(=O)Nc1ccc(-c2nc(N3CC4CCC(C3)O4)c3cnn(C(C)(C)C)c3n2)cc1 [Example 92] | > 10 µM | > 10 µM | 1.8 µM | 0.0117 µM |  |  |  | 30 µM
10 | COC(=O)N1CCC(n2ncc3c(N4C5CCC4COC5)nc(-c4ccc(NC(=O)Nc5ccc(CN6CCN(C)CC6)cc5)cc4)nc32)CC1 [Example 367, methyl 4-[6-{4-[({4-[(4-methylpiperazin-1-yl)methyl]phenyl}carbamoyl)amino]phenyl}-4-(3-oxa-8-azabicyclo[3.2.1]oct-8-yl)-1H-pyrazolo[3,4-d]pyrimidin-1-yl]piperidine-1-carboxylate] |  |  | 0.001 µM |  | 1.82 µM | 2.39 µM | 0.00088 µM | 0.013 µM

Second part, led by results:

Row | IC50 ([1]; PI3 Kinase γ) | IC50 ([2]; PI3 Kinase α) | IC50 [3] | IC50 [4] | IC50 [1, 6] | IC50 [2, 7] | IC50 [4, 8] | SMILES | IC50 [5]
11 |  |  | 0.2 µM |  | 6.1 µM | 1.08 µM | 0.0175 µM | CCn1nc(C=O)c2c(N3CC4CCC(C3)O4)nc(-c3ccc(NC(=O)NC)cc3)nc21 [Example 352, 1-{4-[1-ethyl-3-formyl-4-(8-oxa-3-azabicyclo[3.2.1]oct-3-yl)-1H-pyrazolo[3,4-d]pyrimidin-6-yl]phenyl}-3-methylurea] | 0.7 µM
12 | 0.44 µM | 0.098 µM | < 0.001 µM | 0.000111 µM |  |  |  | O=C(Nc1ccc(CCO)cc1)Nc1ccc(-c2nc(N3CC4CCC(C3)O4)c3cnn(CC(F)(F)F)c3n2)cc1 [Example 260, 1-[4-(2-hydroxyethyl)phenyl]-3-{4-[4-(8-oxa-3-azabicyclo[3.2.1]oct-3-yl)-1-(2,2,2-trifluoroethyl)-1H-pyrazolo[3,4-d]pyrimidin-6-yl]phenyl}urea] | < 0.001 µM
13 | > 10 µM | 2.85 µM | 4.9 µM | 0.245 µM |  |  |  | CCn1ncc2c(N3CC4CCC(C3)O4)nc(-c3ccc(NC(=O)N[C@H]4CC[C@@H](N)CC4)cc3)nc21 (relative stereo) [Example 229, 1-(cis-4-aminocyclohexyl)-3-{4-[1-ethyl-4-(8-oxa-3-azabicyclo[3.2.1]oct-3-yl)-1H-pyrazolo[3,4-d]pyrimidin-6-yl]phenyl}urea] | 4 µM
14 |  |  | 1.2 µM |  | > 10 µM | 5.17 µM | 0.081 µM | O=C(Nc1ccc(-c2nc(N3C[C@H]4C[C@@H]3CO4)c3cnn(CC(F)(F)F)c3n2)cc1)OCCO [Example 343, 2-hydroxyethyl (4-{4-[(1R,4R)-2-oxa-5-azabicyclo[2.2.1]hept-5-yl]-1-(2,2,2-trifluoroethyl)-1H-pyrazolo[3,4-d]pyrimidin-6-yl}phenyl)carbamate] | 1.5 µM
15 | > 10 µM | 1.82 µM | 0.09 µM | 0.000765 µM |  |  |  | O=C(Nc1ccc(-c2nc(N3CC4CCC(C3)O4)c3cnn(CCF)c3n2)cc1)NC1CC1 [Example 248, 1-cyclopropyl-3-{4-[1-(2-fluoroethyl)-4-(8-oxa-3-azabicyclo[3.2.1]oct-3-yl)-1H-pyrazolo[3,4-d]pyrimidin-6-yl]phenyl}urea] | 0.5 µM
